Measured values taken from PubChem BioAssay AID2305 (GlaxoSmithKline (GSK), 2010).

System: P. falciparum 3D7 growth, pLDH absorbance
Assay: blood-stage malaria parasite growth potency – strain 3D7, dose response (AID 2305)

With c1csc(-c2nc(N3CCCCC3)ncc2-c2ccsc2)n1 as the molecule, how does the IC50 read?
Its IC50 is 140 nM.

Which IC50 does the source give for CCCCC(=O)Nc1ccc(Nc2nc(C)cc(N3CCCC3)n2)cc1 here?
Its IC50 is 1060 nM.

With CC(C)(CN1CCCC1)CN(Cc1ccc(-c2ccc(C(F)(F)F)cc2)cc1)C(=O)Cn1c(CCc2cccc(F)c2F)nc(=O)c2ccccc21 as the molecule, how does the IC50 read?
The IC50 was 790 nM.

With Cc1cc(N[C@@H](Cc2ccccc2)C(=O)NCCc2ccccc2)nc(NCC2CCCCC2)n1 as the molecule, how does the IC50 read?
The IC50 was 920 nM.

How did the IC50 turn out when Cc1nc2ccc3ccc(CNc4ccc(C(=O)CC(CCC(=O)O)C(=O)O)cc4)cc3c2c(=O)[nH]1 (stereo not drawn) was run?
Its IC50 is 40 nM.

How did the IC50 turn out when COc1ccc(OC)c2c1CCN(C)C2Cc1cccc2ccccc12 (stereo not drawn) was run?
The IC50 was 1050 nM.

How did the IC50 turn out when CC(C)(C)OC(=O)NCc1ccc(Nc2nnc(-c3ccc(OCC(=O)NCc4cc(C(F)(F)F)cc(C(F)(F)F)c4)c([N+](=O)[O-])c3)o2)cc1 was run?
Its IC50 is 460 nM.

O=[N+]([O-])c1ccc(Nc2nc(NN=Cc3cccc(O)c3)nc(N3CCCC3)n2)cc1 was tested. Which IC50 did it give?
Its IC50 is 1080 nM.

With CCOC(=O)c1cn(CC)c2cc(N3CCCCCC3)c(F)cc2c1=O as the molecule, how does the IC50 read?
The IC50 was 410 nM.

How did the IC50 turn out when CC(C)C[C@H](NC(=O)c1ccc(OCCN2CCOCC2)cc1)C(=O)N[C@H](/C=N/N1CCNC1=O)CCc1ccccc1 was run?
Its IC50 is 370 nM.

FC(F)(F)c1ccc2nc(-c3ccc(-c4cccc(CNCc5cnn(-c6ccccc6)n5)c4)cc3)[nH]c2c1 was tested. Which IC50 did it give?
The IC50 was 650 nM.

CCOc1ccc2nc(C)cc(NN=Cc3ccccc3F)c2c1 was tested. Which IC50 did it give?
Its IC50 is 740 nM.

How did the IC50 turn out when OCc1ccc2nc3c(cc2c1)-c1cccc2cccc-3c12 was run?
Its IC50 is 660 nM.

Which IC50 does the source give for CCOc1ccccc1CNc1nccc(NCc2ccccc2OC)n1 here?
The IC50 was 1490 nM.

How did the IC50 turn out when O=S(=O)(c1ccccc1C(F)(F)F)C1C[C@H]2CC[C@@H](C1)N2S(=O)(=O)c1ccc(Cl)c(C(F)(F)F)c1 (stereo partly drawn) was run?
The IC50 was 710 nM.

O=C(Cn1c(CCc2cccc(F)c2F)nc(=O)c2cccnc21)N(Cc1ccc(-c2ccc(C(F)(F)F)cc2)cc1)C1CCN(C2CCSCC2)CC1 was tested. Which IC50 did it give?
Its IC50 is 230 nM.

For CN1CCC(NCc2cccc(-c3ccc(S(=O)(=O)NCCc4ccccn4)c(F)c3)c2)CC1, which IC50 is on record?
Its IC50 is 920 nM.

For Cc1ccc(-c2cc(C(=O)Nc3ccc(S(=O)(=O)N4CCCCC4)cc3)[nH]n2)c(O)c1, which IC50 is on record?
Its IC50 is 1770 nM.

For N#Cc1ccc2c(c1)CCN(CCC1CCC(NC(=O)c3cccc(-c4ccc(F)cc4)c3)CC1)CC2 (stereo not drawn), which IC50 is on record?
The IC50 was 820 nM.

For O=C(Nc1ccc2c(ccn2C2CCCN(Cc3cc(F)cc(F)c3F)CC2)c1)c1ccco1 (stereo not drawn), which IC50 is on record?
The IC50 was 650 nM.

With Cc1sc(CNCCCNc2cc(=O)c3ccccc3[nH]2)c(I)c1C as the molecule, how does the IC50 read?
The IC50 was 850 nM.

How did the IC50 turn out when CC(=O)OCCN1C(=O)c2ccc3c4c(ccc(c24)C1=O)C(=O)N(CCOC(C)=O)C3=O was run?
The IC50 was 240 nM.

O=C(Nc1cccc(C(F)(F)F)c1)c1cccc(S(=O)(=O)NC2CCN(CC3CCCCC3)C2)c1 (stereo not drawn) was tested. Which IC50 did it give?
Its IC50 is 590 nM.

With CN(C)CCCNCc1ccc(-c2ccc(C(F)(F)F)cc2)cc1 as the molecule, how does the IC50 read?
Its IC50 is 870 nM.

Which IC50 does the source give for COc1ccc(-c2ccc(NC(=O)c3cccc(Cl)c3)cc2)cc1CN1CCN(C)CC1 here?
Its IC50 is 950 nM.

For Cc1cccc2[nH]c(-c3ccc(-c4cccc(NC(=O)Nc5ccsc5)c4)cc3)nc12, which IC50 is on record?
The IC50 was 800 nM.

For COc1ccc(-c2cccc(NC(=O)c3ccc(Cl)cc3)c2)cc1CNC(C)C, which IC50 is on record?
Its IC50 is 690 nM.

With Cc1nccn1CCNC(=O)CN1CCC2(CCC1=O)CC(=O)c1ccccc1O2 (stereo not drawn) as the molecule, how does the IC50 read?
The IC50 was 800 nM.

With Cc1cc2nc(NC3=NC4(c5ccccn5)N=C(Nc5nc6cc(C)c(C)cc6[nH]5)NC4(c4ccccn4)N3)[nH]c2cc1C (stereo not drawn) as the molecule, how does the IC50 read?
The IC50 was 680 nM.

With COC(=O)c1ccc(OCC(O)CO)cc1O (stereo not drawn) as the molecule, how does the IC50 read?
Its IC50 is 740 nM.

Which IC50 does the source give for COc1ccc(N2CCN(CCCCNC(=O)c3ccc(/C=C/c4ccc(Cl)c(Cl)c4)cc3)CC2)c(OC)c1 here?
Its IC50 is 710 nM.

For Nc1ncc(-c2ccsc2)c2ccc(-c3cc(NCc4ccccc4)ncn3)cc12, which IC50 is on record?
Its IC50 is 860 nM.

With CCCCC1(c2ccc(F)cc2)NC(=O)N(CC(=O)c2cc(C)n(Cc3ccco3)c2C)C1=O (stereo not drawn) as the molecule, how does the IC50 read?
Its IC50 is 980 nM.

Which IC50 does the source give for COc1cc(Nc2nccc(N3CCC(NC(=O)c4cccc(NC(C)=O)c4)C3)n2)cc(OC)c1OC (stereo not drawn) here?
Its IC50 is 830 nM.

For Cc1cc(NN=CC=Cc2ccccc2)c2cc(F)ccc2n1, which IC50 is on record?
Its IC50 is 730 nM.

How did the IC50 turn out when CCC(CC)OC(=O)C(C)c1cccc(C(=O)c2ccccc2)c1 (stereo not drawn) was run?
The IC50 was 830 nM.

How did the IC50 turn out when COc1cc2nc(-c3ccc(Br)cc3)cc(N)c2cc1OC was run?
Its IC50 is 170 nM.

How did the IC50 turn out when COc1cc(Cc2cnc(N)nc2N)cc(OCCCS(=O)(=O)O)c1OC was run?
Its IC50 is 1170 nM.

With CC(C)(C)CNc1noc(-c2sccc2Br)n1 as the molecule, how does the IC50 read?
Its IC50 is 1120 nM.

For CCCNCc1ccc(-c2ccc(CN(CCOC)C(=O)c3ccco3)cc2)nc1, which IC50 is on record?
The IC50 was 1000 nM.

How did the IC50 turn out when O=C(c1ccc(-c2cccc(-c3nc4ccc(C(F)(F)F)cc4[nH]3)c2)cc1)N1CCCCC1CN1CCC(O)C1 (stereo not drawn) was run?
Its IC50 is 650 nM.

How did the IC50 turn out when CNC(=O)c1ccc2nc(-c3ccc(-c4ccccc4)cc3)n(CC3CCN(CC4CCCC4)CC3)c2c1 was run?
The IC50 was 40 nM.

For Cc1ccc(NC(=O)Nc2ccc(Cl)c(C(F)(F)F)c2)cc1-c1ccc(C(=O)Nc2ccncc2)cc1, which IC50 is on record?
Its IC50 is 260 nM.

CCCCCN1CCCC1CNS(=O)(=O)c1ccc(C(=O)Nc2ccc(C(F)(F)F)cc2)cc1 (stereo not drawn) was tested. Which IC50 did it give?
The IC50 was 840 nM.

How did the IC50 turn out when COc1cc(F)c2ncc(Cl)c(CCN3CCC(NCc4ccc5c(c4)OCCO5)CC3)c2c1 was run?
Its IC50 is 470 nM.

Which IC50 does the source give for C/C=C/COc1ccc(-c2c(C)[nH]c(C)c(Cl)c2=O)cc1 here?
Its IC50 is 200 nM.

With CCOc1cc(C(=O)Nc2ccccc2N2CCN(S(C)(=O)=O)CC2)cc(OCC)c1OCC as the molecule, how does the IC50 read?
The IC50 was 650 nM.

With Cn1nc(C(F)(F)F)c(-c2ccc(F)cc2)c1NC(=O)Nc1ccccc1 as the molecule, how does the IC50 read?
The IC50 was 800 nM.
